Assay results from US11059795B2, “Androgen receptor modulators and methods for their use” (ESSA Pharma, Inc., priority 2018, dated 2021).
Counter-ions that a name gives are not always drawn.

Tests used:
androgen receptor (AR) = biological target: T1, androgen receptor (AR) (Homo sapiens, UniProt P10275, T878A); test: Androgen-induced PSA (6.1 kb)-luciferase reporter assay in LNCaP cells; assay type: cell-based; conditions: LNCaP cells transfected with PSA (6.1 kb)-luciferase reporter, R1881 1 nM, 24 h; read-out: PSA-Luc IC50 Range
T1 construct: LNCaP cells were transiently transfected with the PSA (6.1 kb)-luciferase reporter for 24 h; endogenous in cells; host or cells: LNCaP
T1 sequence (P10275 1-920 T878A): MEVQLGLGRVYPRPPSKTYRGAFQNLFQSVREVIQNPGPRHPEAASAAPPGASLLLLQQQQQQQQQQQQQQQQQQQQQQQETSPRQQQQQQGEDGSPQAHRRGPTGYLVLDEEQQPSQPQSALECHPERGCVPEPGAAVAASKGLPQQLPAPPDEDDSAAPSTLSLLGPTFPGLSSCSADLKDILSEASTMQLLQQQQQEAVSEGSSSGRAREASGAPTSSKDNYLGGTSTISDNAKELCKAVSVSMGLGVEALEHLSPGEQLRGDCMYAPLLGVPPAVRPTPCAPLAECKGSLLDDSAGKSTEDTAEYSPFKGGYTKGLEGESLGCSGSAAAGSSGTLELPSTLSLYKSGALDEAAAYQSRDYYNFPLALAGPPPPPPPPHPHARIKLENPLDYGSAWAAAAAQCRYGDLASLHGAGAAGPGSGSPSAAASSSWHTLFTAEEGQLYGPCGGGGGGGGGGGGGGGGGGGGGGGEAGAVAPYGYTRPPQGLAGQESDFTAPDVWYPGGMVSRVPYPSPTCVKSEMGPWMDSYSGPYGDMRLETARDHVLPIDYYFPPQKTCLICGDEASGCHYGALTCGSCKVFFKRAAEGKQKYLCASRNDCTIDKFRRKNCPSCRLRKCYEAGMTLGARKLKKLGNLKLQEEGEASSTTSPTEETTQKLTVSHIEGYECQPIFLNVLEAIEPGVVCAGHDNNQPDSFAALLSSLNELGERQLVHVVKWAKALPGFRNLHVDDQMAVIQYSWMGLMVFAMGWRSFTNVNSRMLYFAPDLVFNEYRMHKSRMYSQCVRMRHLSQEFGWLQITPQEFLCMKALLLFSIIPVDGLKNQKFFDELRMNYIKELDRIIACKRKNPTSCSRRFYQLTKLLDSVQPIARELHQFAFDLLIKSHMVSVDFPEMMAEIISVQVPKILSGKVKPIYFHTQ
Experimental: The PSA (6.1 kb)-luciferase reporter contains functional AREs (androgen response elements) to which AR binds in response to androgen to induce luciferase activity.
Cells were lysed using Passive Lysis Buffer (Promega) and then collected into V-bottom 96-well tissue culture plates. Lysates were centrifuged at 4° C. for 5 minutes at 3000 rpm. To measure luminescence of LNCaP cell lysates the Firefly Luciferase Assay System (Promega) was employed, according to manufacturer's protocol. Relative luminescence units (RLU) in cell lysates were detected for 10 seconds using Promega GloMax-Multi Detection Luminometer (Promega). Values were normalized to protein content. GraphPad Prism graphing software was used to calculate IC50 values.
Comparisons between treatment and control groups were compared using Two-Way ANOVA with post-hoc Dunnett's and Tukey's tests. Differences were considered statistically significant at P values less than 0.05.

[1] = Microsomal stability assay, mouse liver microsomes; assay type: in vitro ADME; conditions: mouse, liver microsomes, pH 7.4, mouse liver microsomes, 1 μM compound, 0.5 mg/mL protein, 37° C.; read-out: MLM +30/− NADPH: Clint (μL/min/mg protein)
Experimental: (§1) Microsomal stability assay is a widely used in vitro model to characterize the metabolic conversion by phase I enzymes, such as cytochrome P450 (CYP) enzymes. Since metabolism is known to be highly variable in different species, microsomal stability assay is commonly run in multiple species. Metabolic stability of testing compound can be evaluated using human, rat, mouse, or other animal liver or intestine microsomes to predict intrinsic clearance.
(§2) The assay was carried out in 96-well microtiter plates at 37° C. Reaction mixtures (25 μL) contained a final concentration of 1 μM test compound, 0.5 mg/mL liver microsomes protein, and 1 mM NADPH and/or 1 mM UDPGA (with alamethicin) in 100 mM potassium phosphate, pH 7.4 buffer with 3 mM MgCl2. The incubation was done with N=1, but duplicate incubation at each time point can be prepared if necessary. At each of the time points (for example, 0, 15, 30, and 60 minutes), 150 μL of quench solution (100% acetonitrile with 0.1% formic acid) with internal standard was transferred to each well. Besides the zero minute controls, mixtures containing the same components except the NADPH can also be prepared as the negative control. Verapamil was included as a positive control to verify assay performance. Plates were sealed, vortexed, and centrifuged at 4° C. for 15 minutes at 4000 rpm. The supernatant is transferred to fresh plates for LC/MS/MS analysis.
(§3) Summarized conditions: [Compound]=[…], [LM]=0.5 mg/mL, [NADPH]=1 mM and/or [UDPGA]=1 mM, Buffer=100 mM Potassium Phosphate, pH 7.4 with 3 mM MgCl2, Time=0, 15, 30, and 60 min, and Temperature=37° C.
(§4) All samples were analyzed on LC/MS/MS using an AB Sciex API 4000 instrument, coupled to a Shimadzu LC-20AD LC Pump system. Analytical samples were separated using a Waters Atlantis T3 dC18 reverse phase HPLC column (20 mm×2.1 mm) at a flow rate of 0.5 mL/min. The mobile phase consisted of 0.1% formic acid in water (solvent A) and 0.1% formic acid in 100% acetonitrile (solvent B).
(§5) The extent of metabolism is calculated as the disappearance of the test compound, compared to the 0-min time incubation. Initial rates are calculated for the compound concentration and used to determine half-life (t½) values and subsequently, the intrinsic clearance (Clint). Clint=(0.693)(1/t½ (min))(g of liver/kg of body weight)(mL incubation/mg of microsomal protein)(45 mg of microsomal protein/g of liver weight)

[2] = Microsomal stability assay, human liver microsomes; assay type: in vitro ADME; conditions: pH 7.4, 1 μM compound, 0.5 mg/mL protein, 37° C., read-out: HLM +/− NADPH: Clint (μL/min/mg protein)
Experimental: as §1, §2, §3, §4, §5

Structure (SMILES)	IC50 (androgen receptor (AR)) [nM]	microsomal CLint at 1 μM [1] [µL/min/mg]	microsomal CLint at 1 μM [2] [µL/min/mg]
Cc1nc(S(C)(=O)=O)c(COc2ccc(C(C)(C)c3cc(Cl)c(OCCCl)c(Cl)c3)cc2)o1 [Compound A34]	500 to 2000	12 to 48	< 12
CC(C)(c1ccc(OCc2ocnc2C(N)=O)cc1)c1cc(Cl)c(OCCCl)c(Cl)c1 [Compound A45]	500 to 2000	< 12	< 12
CC(C)(c1ccc(OCc2coc(S(C)(=O)=O)n2)cc1)c1cc(Cl)c(OCCCl)c(Cl)c1 [Compound A68]	< 500	< 12	< 12
CC(C)(c1ccc(OCc2nccc(NS(C)(=O)=O)n2)cc1)c1cc(Cl)c(OCCCl)c(Cl)c1 [Compound A42]	500 to 2000	< 12	< 12
CC(C)(c1ccc(CN2C(=O)N(S(C)(=O)=O)C(C)(C)C2=O)cc1)c1cc(Cl)c(OCCCl)c(Cl)c1 [Compound B3, 3-(4-(2-(3,5-Dichloro-4-(2-chloroethoxy)phenyl)propan-2-yl)benzyl)-5,5-dimethyl-1-(methylsulfonyl)imidazolidine-2,4-dione]	500 to 2000	< 12	< 12
CC(C)(c1cc(Cl)c(OCCCl)c(Cl)c1)c1ccc(OCc2ocnc2S(C)(=O)=O)c(C#N)c1 [Compound A30]	500 to 2000	12 to 48	12 to 48
CC(C)(c1ccc(NCc2ocnc2S(C)(=O)=O)cc1)c1cc(Cl)c(OCCCl)c(Cl)c1 [Compound A32, 4-(2-(3,5-dichloro-4-(2-chloroethoxy)phenyl)propan-2-yl)-N-((4-(methylsulfonyl)oxazol-5-yl)methyl)aniline Hydrochloride]	> 2000	≥ 48	12 to 48
CC(C)(c1ccc(OCc2ocnc2S(C)(=O)=O)cc1)c1cc(Cl)c(OCCCCl)c(Cl)c1 [Compound A3, 5-[[4-[1-[3,5-dichloro-4-(3-chloropropoxy)phenyl]-1-methyl-ethyl]phenoxy]methyl]-4-methylsulfonyl-oxazole]	500 to 2000	< 12	< 12
COc1c(Cl)cc(C(C)(C)c2ccc(OCc3coc(NS(C)(=O)=O)n3)cc2)cc1C#N [Compound A161]	–	< 12	< 12
CC(C)(c1ccc(NC(=O)c2coc(NS(C)(=O)=O)n2)cc1)c1cc(Cl)c(OCCCl)c(Cl)c1 [Compound A49, N-(4-(2-(3,5-Dichloro-4-(2-chloroethoxy)phenyl)propan-2-yl)phenyl)-2-(methylsulfonamido)oxazole-4-carboxamide]	> 2000	< 12	12 to 48
CC(C)(c1ccc(C(=O)Nc2ccnc(NS(C)(=O)=O)n2)cc1)c1cc(Cl)c(OCCCl)c(Cl)c1 [Compound A189]	500 to 2000	< 12	< 12
CC(O)(c1ccc(OCc2ocnc2S(C)(=O)=O)cc1)c1cc(Cl)c(OCCCl)c(C#N)c1 (stereo not drawn) [Compound A77]	500 to 2000	≥ 48	12 to 48
CN1C(=O)N(Cc2ccc(C(C)(C)c3cc(Cl)c(OCCCCl)c(Cl)c3)cc2)C(=O)C1(C)C [Compound B1]	500 to 2000	≥ 48	12 to 48
Cn1c(COc2ccc(C(C)(C)c3cc(Cl)c(OCCCl)c(Cl)c3)cc2)cnc1S(C)(=O)=O [Compound A78]	500 to 2000	< 12	< 12
CC(C)(c1ccc(OCc2nc(C#N)co2)cc1)c1cc(Cl)c(OCCCl)c(C#N)c1 [Compound A174]	500 to 2000	12 to 48	< 12
CC(C)(c1cnc(NCc2ocnc2S(C)(=O)=O)nc1)c1cc(Cl)c(OCCCl)c(Cl)c1 [Compound A27]	> 2000	≥ 48	< 12
CC(C)(c1ccc(N2C(=O)N(S(C)(=O)=O)C(C)(C)C2=O)cc1)c1cc(Cl)c(OCCCl)c(Cl)c1 [Compound B7]	> 2000	< 12	< 12
CC(C)(c1ccc(OCc2ocnc2C#N)cc1)c1cc(Cl)c(OCCCl)c(Cl)c1 [Compound A65]	500 to 2000	12 to 48	12 to 48
CC(C)(c1ccc(NC(=O)c2ocnc2S(C)(=O)=O)cc1)c1cc(Cl)c(OCCCl)c(Cl)c1 [Compound A73]	500 to 2000	< 12	< 12
CC(C)(c1ccc(OCc2nc(C(N)=O)co2)cc1)c1cc(Cl)c(OCCCl)c(C#N)c1 [Compound A173]	> 2000	< 12	< 12
CN1C(=O)N(Cc2ccc(C(C)(C)c3cc(Cl)c(OCCCl)c(Cl)c3)cc2)C(=O)C1(C)C [Compound B2, 3-(4-(2-(3,5-Dichloro-4-(2-chloroethoxy)phenyl)propan-2-yl)benzyl)-1,5,5-trimethylimidazolidine-2,4-dione]	< 500	≥ 48	≥ 48
CC(C)(c1cc(Cl)c(OCCCl)c(Cl)c1)c1ccc(N2C(=O)N(S(C)(=O)=O)C(C)(C)C2=O)c(C#N)c1 [Compound B10]	> 2000	12 to 48	< 12
Cc1cc(C(C)(C)c2ccc(CN3C(=O)N(S(C)(=O)=O)C(C)(C)C3=O)c(C(N)=O)c2)cc(Cl)c1OCCCl [Compound B9]	< 500	12 to 48	12 to 48
CC(C)(c1ccc(OCCCl)c(C#N)c1)c1ccc(OCc2ocnc2S(C)(=O)=O)c(C#N)c1 [Compound A63, 2-(2-chloroethoxy)-5-(2-(3-cyano-4-((4-(methylsulfonyl)oxazol-5-yl)methoxy)phenyl)propan-2-yl)benzonitrile]	500 to 2000	–	12 to 48
CC(C)(c1ccc(N2C(=O)N(N)C(C)(C)C2=O)cc1)c1cc(Cl)c(OCCCl)c(Cl)c1 [Compound B6]	> 2000	–	12 to 48
